Experiments:
[1] = system: Chlamydia trachomatis; experiment: Chlamydia assay: transient treatment of Chlamydia with maleimides, infection of McCoy cells, iodine-stained inclusions counted; format: cell-based; conditions: for IODINE-STAINED INCLUSIONS/FIELD F1: field 1; for IODINE-STAINED INCLUSIONS/FIELD F2: field 2; for IODINE-STAINED INCLUSIONS/FIELD F3: field 3; for IODINE-STAINED INCLUSIONS/FIELD F4: field 4; for IODINE-STAINED INCLUSIONS/FIELD F5: field 5; for MEAN COUNT/FIELD (iodine-stained inclusions): mean of 5 fields; for TOTAL COUNT/FIELDS (iodine-stained inclusions): sum of 5 fields
Procedure: Purified Chlamydia trachomatis (250 μl) was added to 250 μl of each compound concentration and the mixtures incubated at room temperature for 5 minutes. The tubes were then centrifuged (15000 rpm, 15 minutes), the supernatant decanted and the pellet washed serum free MEM (with 0.5 mls). This step was repeated and the resultant pellet resuspended MEM (in 0.5 ml) and inoculated into a confluent shell vial (coverslip) cultures of McCoy cells. The cultures were centrifuged (3000 rpm, 1 hour at 37° C.) and incubated for a further 2 hours prior to being changed onto MEM with 10% foetal calf serum, I μg/rl cycloheximide, 0.5% added glucose, vancomycin, streptomycin and amphoteracin B (Fungizone). The cultures were incubated for 68 hours, fixed in methanol and stained with Lugol's iodine. 3 replicates of each positive control (with and without DMSO) were included, as well as 2 uninoculated cell controls. Each coverslip culture was examined using low power (10×) objective to ensure that inclusions were evenly distributed and 5 high power (×40) fields were selected at random from different areas of the coverslip. Iodine stained inclusions were counted. Where no inclusions were seen on high power, the culture was re-examined under low power. Table 1. Effect of Transient Treatment with maleimides on Chlamydia Infection of McCoy Cell In Vitro. Chlamydia was pre-treated with each of the indicated maleimides for 5 minutes and the compound removed by centrifugation. McCoy cells were then exposed to the compound pre-treated chlamydia for 68 hours and inclusions counted following staining of cells with Lugols iodine.

[2] = system: HIV (IHV-1RF); experiment: Anti-viral (virucidal) assay: plate-bound HIV treated 10 minutes, C8166 cells added, syncytium score and XTT; format: cell-based; conditions: for Syncytia score day 5 (quadruplicate wells) / Syncytia score day 6 (quadruplicate wells): C8166 cells; for Mean Optical Readings at 450 nm: XTT cell viability
Procedure: HIV was attached to the surface of 96-well cell culture plates using 100 μl of 50 μg/ml poly-L-lysine hydrobromide (PLL) of molecular weight >300 K for 1 h at RT. The outer wells were left uncoated and filled with 250 μl of PBS to counteract the effects of evaporation. The coated wells were washed twice with PBS and 25 μl of RPMI 1640 medium containing 5×10^3 TCID50 of IHV-1RF was added and incubated for 1 h at RT. The wells were then washed twice with PBS and 25 μl of varying concentrations of the test compounds made up with serum free medium (containing a constant 10% DMSO) were added to the wells in quadruplicate and the plates incubated at 37° C. for 10 minutes. The wells were again washed twice with PBS and 5×10^4 C8166 cells in a volume of 300 μl distributed to each well and the plates incubated for 5 and 6 days respectively. On days 5 and 6 the cells were assessed microscopically for the presence of cytopathic effect (syncytium formation) and recorded. In order to quantify the cytopathic effect, XIT which is metabolised by viable but not dead cells, was added and the absorbance read at 450 nm after […] incubation at 37° C.
An assessment of viral cytopathic effect was made microscopically on days 5 and 6, but the end point of the experiment was on day 6 when the level of virus infection (as determined by cell viability) was quantified by the use of XTT.

[3] = final conc 0.02 (M), working conc 0.04 (M)
[4] = final conc 0.4 (M), working conc 0.8 (M)
[5] = final conc 1 (M), working conc 2 (M)

## O=C1C=CC(=O)N1c1ccc(OCCOCCOCCOCCOc2ccc(N3C(=O)C=CC3=O)cc2)cc1 [Compound 2, PEG(5) bis phenyl bis maleimide]
[1]; [3]
  IODINE-STAINED INCLUSIONS/FIELD F1: 3 inclusions/field
  IODINE-STAINED INCLUSIONS/FIELD F2: 2 inclusions/field
  IODINE-STAINED INCLUSIONS/FIELD F3: 6 inclusions/field
  IODINE-STAINED INCLUSIONS/FIELD F4: 5 inclusions/field
  IODINE-STAINED INCLUSIONS/FIELD F5: 7 inclusions/field
  MEAN COUNT/FIELD (iodine-stained inclusions): 5 inclusions/field
  TOTAL COUNT/FIELDS (iodine-stained inclusions): 23
[1]; [4]
  IODINE-STAINED INCLUSIONS/FIELD F1: 1 inclusions/field
  IODINE-STAINED INCLUSIONS/FIELD F2: 2 inclusions/field
  IODINE-STAINED INCLUSIONS/FIELD F3: 2 inclusions/field
  IODINE-STAINED INCLUSIONS/FIELD F4: 1 inclusions/field
  IODINE-STAINED INCLUSIONS/FIELD F5: 5 inclusions/field
  MEAN COUNT/FIELD (iodine-stained inclusions): 2 inclusions/field
  TOTAL COUNT/FIELDS (iodine-stained inclusions): 11
[1]; final conc 1 (M), working conc 2 (M), 5 minutes pre-treatment, McCoy cells 68 hours
  IODINE-STAINED INCLUSIONS/FIELD F1: 0 inclusions/field
[1]; [5]
  IODINE-STAINED INCLUSIONS/FIELD F2: 0 inclusions/field
  IODINE-STAINED INCLUSIONS/FIELD F3: 0 inclusions/field
  IODINE-STAINED INCLUSIONS/FIELD F4: 0 inclusions/field
  IODINE-STAINED INCLUSIONS/FIELD F5: 0 inclusions/field
  MEAN COUNT/FIELD (iodine-stained inclusions): 0 inclusions/field
  TOTAL COUNT/FIELDS (iodine-stained inclusions): 0
[1]; final conc 1 (M), working conc 2 (M), re-examined under low power
  COMMENTS: inclusions seen on entire coverslip: 6 inclusions
[1]; transient exposure of chlamydia to compound
  inhibition of the infection of McCoy cells with chlamydia: dose-dependent inhibition
[2]; Conc 0.003 mM
  Syncytia score day 5 (quadruplicate wells): ++++ (50-100% syncytia)
[2]; Conc 0.003 mM, day 6
  Syncytia score day 6 (quadruplicate wells): ++++ (50-100% syncytia)
  Mean Optical Readings at 450 nm: 0.4883
[2]; Conc 0.01 mM
  Syncytia score day 5 (quadruplicate wells): ++++ (50-100% syncytia)
[2]; Conc 0.01 mM, day 6
  Syncytia score day 6 (quadruplicate wells): ++++ (50-100% syncytia)
  Mean Optical Readings at 450 nm: 0.4895
[2]; Conc 0.03 mM
  Syncytia score day 5 (quadruplicate wells): ++++ (50-100% syncytia)
[2]; Conc 0.03 mM, day 6
  Syncytia score day 6 (quadruplicate wells): ++++ (50-100% syncytia)
  Mean Optical Readings at 450 nm: 0.4928
[2]; Conc 0.1 mM
  Syncytia score day 5 (quadruplicate wells): ++++ (50-100% syncytia)
[2]; Conc 0.1 mM, day 6
  Syncytia score day 6 (quadruplicate wells): ++++ (50-100% syncytia)
  Mean Optical Readings at 450 nm: 0.4983
[2]; Conc 0.3 mM
  Syncytia score day 5 (quadruplicate wells): +++ (25-50% syncytia)
[2]; Conc 0.3 mM, day 6
  Syncytia score day 6 (quadruplicate wells): ++++ (50-100% syncytia)
  Mean Optical Readings at 450 nm: 0.5092
[2]; Conc 1 mM, day 6
  Mean Optical Readings at 450 nm: 0.9895
[2]; Human immunodeficiency virus 1, C8166, XTT, day 6, virus treated 10 minutes, read-out: IC50 (virucidal)
  IC50: ~1000 µM
[2]; Human immunodeficiency virus 1, C8166, at 1 mM
  inhibition at 1000 µM: ~50%

Reference: patent publication US20050148653A1, “Polymaleimide compounds and their medical use” (priority 2001, published 2005)
